# Measurements as given in the supplement of paper PMC10331698.
# ± gives the standard deviation of the averaged measurements.
# How the values were obtained:
# Assay in all cases: level (log10 ratio to DMSO vehicle control); higher = higher biomarker level / cell amount than vehicle control
# Settings in all cases: in DMSO
# [1] = compound: FC(F)(F)C(F)(F)CNCC(F)(F)C(F)(F)F [Bis(1H,1H-perfluoropropyl)amine]
# Description: (§1)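 BioMAP Diversity Plus panel of 12 human primary cell co-culture systems (3C, 4H, LPS, SAg, BT, BF4T, BE3C, CASM3C, HDF3CGF, KF3CT, MyoF, Mphg). Compounds were added 1 h before stimulation and left for 24 h (MyoF 48 h; BT 72 h for soluble read-outs or 6 d for IgG). Biomarkers were read by ELISA, cytotoxicity by SRB, PBMC viability and proliferation by Alamar Blue. Each well value was divided by the mean of 8 DMSO control wells on the same plate and log10 transformed; duplicate blinded samples were tested at 4 concentrations.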
# Nonafluoropentanamide = compound: NC(=O)C(F)(F)C(F)(F)C(F)(F)C(F)(F)F [Nonafluoropentanamide]
# Description: as §1
# [2] = compound: O=C(O)C(F)(F)C(F)(F)C(F)(F)C(F)(F)C(F)(F)C(F)(F)C(F)(F)C(F)(F)C(F)(F)C(F)F [11-H-Perfluoroundecanoic acid]
# Description: as §1
# [3] = compound: O=S(=O)(Cl)C(F)(F)C(F)(F)C(F)(F)C(F)(F)C(F)(F)C(F)(F)C(F)(F)C(F)(F)F [Perfluoro-1-octanesulfonyl chloride]
# Description: as §1
# [4] = compound: O=S(=O)(F)C(F)(F)C(F)(F)C(F)(F)C(F)(F)C(F)(F)C(F)(F)C(F)(F)C(F)(F)F [Perfluorooctanesulfonyl fluoride]
# Description: as §1
# [5] = compound: O=S(=O)(O)C(F)(F)C(F)(F)C(F)(F)C(F)(F)C(F)(F)C(F)(F)C(F)(F)C(F)(F)C(F)(F)C(F)(F)F [Sodium perfluorodecanesulfonate]
# Description: as §1
Test System,level (log10) ([1]; 6700 nM),level (log10) ([1]; 20000 nM),level (log10) ([1]; 60000 nM),level (log10) (Nonafluoropentanamide; 6700 nM),level (log10) (Nonafluoropentanamide; 20000 nM),level (log10) (Nonafluoropentanamide; 60000 nM),level (log10) ([2]; 6700 nM),level (log10) ([2]; 20000 nM),level (log10) ([3]; 6700 nM),level (log10) ([3]; 20000 nM),level (log10) ([3]; 60000 nM),level (log10) ([4]; 6700 nM),level (log10) ([4]; 20000 nM),level (log10) ([4]; 60000 nM),level (log10) ([5]; 1500 nM),level (log10) ([5]; 4400 nM),level (log10) ([5]; 13000 nM),level (log10) ([5]; 40000 nM)
BE3C:CD54/ICAM-1,-0.012 ± 0.0085,-0.008 ± 0.0099,0.0085 ± 0.044,0.0025 ± 0.012,-0.009 ± 0.028,0.0025 ± 0.03,-0.0105 ± 0.0021,-0.35 ± 0.031,-0.0045 ± 0.0021,0.036 ± 0.0071,-0.69 ± 0.11,-0.0035 ± 0.019,-0.0055 ± 0.0092,0.0045 ± 0.026,0.0015 ± 0.029,-0.0075 ± 0.00071,0.034,0.0425 ± 0.011
BE3C:CD87/uPAR,-0.0335 ± 0.049,-0.0475 ± 0.06,-0.012 ± 0.018,0.012,0.0185 ± 0.015,0.0115 ± 0.018,0.0235 ± 0.026,-0.264 ± 0.019,0.0825 ± 0.025,0.0795 ± 0.0064,-0.276 ± 0.052,-0.0005 ± 0.011,0.0155 ± 0.00071,0.0375 ± 0.0064,0.029 ± 0.011,0.066 ± 0.02,0.005 ± 0.0014,-0.179 ± 0.011
BE3C:CXCL8/IL-8,-0.041 ± 0.073,-0.0325 ± 0.036,-0.008 ± 0.03,0.0235 ± 0.019,0.004 ± 0.05,0.0245 ± 0.066,-0.0885 ± 0.016,0.0475 ± 0.05,0.0065 ± 0.005,-0.0605 ± 0.0021,-0.311 ± 0.17,0.0175 ± 0.0021,0.0295 ± 0.011,0.0615 ± 0.029,0.0135 ± 0.0035,0.0345 ± 0.0021,0.083 ± 0.021,0.0225 ± 0.037
BE3C:CXCL9/MIG,-0.0065 ± 0.0035,-0.0055 ± 0.00071,0.005 ± 0.021,0.015 ± 0.0071,-0.001 ± 0.014,0.014,-0.004 ± 0.0057,-0.905 ± 0.047,-0.0025 ± 0.00071,-0.004 ± 0.0042,-0.724 ± 0.11,0.0035 ± 0.005,-0.0025 ± 0.0064,0.007 ± 0.017,0.016 ± 0.0042,0.008 ± 0.0085,0.014 ± 0.0085,0.0005 ± 0.0092
BE3C:CXCL10/IP-10,-0.017 ± 0.035,-0.0075 ± 0.028,-0.001 ± 0.0028,0.0145 ± 0.021,-0.005 ± 0.038,-0.0095 ± 0.015,-0.141 ± 0.012,-0.874 ± 0.014,-0.0275 ± 0.0064,-0.165 ± 0.033,-0.927 ± 0.04,0.0095 ± 0.035,0.0115 ± 0.025,0.008 ± 0.03,-0.0045 ± 0.029,-0.0165 ± 0.0021,-0.076 ± 0.0042,-0.201 ± 0.013
BE3C:CXCL11/I-TAC,-0.026 ± 0.013,-0.0135 ± 0.016,0.008 ± 0.016,0.012 ± 0.0099,0.01 ± 0.017,0.003 ± 0.027,-0.04 ± 0.0057,-0.826 ± 0.0085,-0.012 ± 0.014,0.002 ± 0.011,-0.598 ± 0.059,0.005 ± 0.0014,-0.0005 ± 0.012,-0.006 ± 0.011,0.0095 ± 0.005,0.0075 ± 0.0064,0.0185 ± 0.005,-0.0685 ± 0.036
BE3C:EGFR,-0.011 ± 0.014,-0.008 ± 0.0057,0.0065 ± 0.021,0.0025 ± 0.011,-0.0425 ± 0.029,-0.0175 ± 0.011,-0.0125 ± 0.021,-0.12 ± 0.0057,-0.0135 ± 0.019,-0.0285 ± 0.00071,-0.121 ± 0.014,0.0125 ± 0.0064,0.017 ± 0.025,-0.0095 ± 0.012,0.0185 ± 0.0035,0.0015 ± 0.0064,-0.022 ± 0.014,-0.032 ± 0.027
BE3C:IL-1alpha,0.0045 ± 0.022,0.0005 ± 0.018,0.007 ± 0.018,-0.002 ± 0.0071,0.002 ± 0.014,0.0105 ± 0.00071,0.0285 ± 0.016,-0.42 ± 0.011,0.015 ± 0.0042,0.0155 ± 0.0092,-0.523 ± 0.1,0.004 ± 0.0042,-0.0115 ± 0.013,-0.007 ± 0.016,-0.007 ± 0.0085,0.007 ± 0.023,-0.0495 ± 0.0078,-0.149 ± 0.0092
